Patent US20230248745A1, “SILVER ENHANCED CANNABINOID ANTIBIOTICS” (priority 2020, published 2023)
Entries after “also recorded” stand apart in the source; their conditions may differ. Read-outs that look alike come from different tables or passages of the source.

Tests used:
MRSA (USA300) = assay: Checkerboard assay, FICI of cannabinoid/silver combinations; format: cell-based, Methicillin-resistant Staphylococcus aureus
Protocol: (§1) Antibacterial growth was measured using a checkerboard analysis or qualitatively using agar plates with zones of inhibition. Viability was measured by the number of colony forming units (CFU) over time.
(§2) Using checkerboard analysis, the fractional inhibitory concentration index (FICI) was calculated for the 96-well plate test to illustrate synergy.
(§3) MRSA strain, USA300, was cultured in Luria-Bertani (LB) medium and inoculated at 37 C.
(§4) Cannabinoids or silver (expressed as the concentration of silver not the salt) were serially diluted 2-fold across the 96-well plate (Costar, catalog no. 3370) followed by addition of 100 μL of bacterial cultures with an OD600 of 0.0025. […] Wells turbidity were then analyzed using Varioskan™ microplate reader.
(§5) FICI was calculated in a checkerboard assay based on the turbidity of the wells. FIC of each agent was determined as the ratio of the minimal inhibitory concentration MIC of one agent in the presence of the other agent to the MIC of that agent alone. FICI was consequently computed as the sum of each agent's FIC.

E. coli strain K12 = assay: as above; format: cell-based, Escherichia coli; conditions: for FICI Silver Nanoparticles: Silver Nanoparticles in combination with the cannabinoid; for FICI Silver Sulfate: Silver Sulfate in combination with the cannabinoid
Protocol: as §1, §2
(§6) Escherichia coli (E. coli), strain K12, was cultured in Luria-Bertani (LB) medium and inoculated at 37 C.
as §4, §5

MRSA (strain USA300) [1] = assay: microbe, parasite or virus in culture; format: cell-based, Methicillin-resistant Staphylococcus aureus; conditions: agent alone, silver expressed as silver
Description: In therapeutic applications, synergy between active ingredients occurs when an observed combined therapeutic effect is greater than the sum of therapeutic effects of individual active ingredients, or a new therapeutic effect is produced that the active ingredients could not produce alone. […] In this context, the enhancement of therapeutic effect may take the form of increased efficacy or potency and/or decreased adverse effects. The synergistic effect may be mediated in whole or in part by the pharmacokinetics and/or pharmacodynamics of the active ingredients in a subject, so that the amount and proportion of the ingredients in the formulation may be synergistic in vivo. This in vivo synergy may be effected with a formulation that includes the active ingredients in amounts and proportions that are also synergistic in in vitro assays of efficacy. As used herein, the term “synergistically effective amounts” accordingly refers to amounts that are synergistic in vivo and/or in vitro. A numeric quantification of synergy is often expressed as a fractional inhibitory concentration index (FICI), which represents the sum of the fractional inhibitory concentrations (FICs) of each drug tested, where the FIC is determined for each drug by dividing the minimum inhibitory concentration (MIC, the lowest concentration of the drug which prevents visible growth of the bacterium in a standard in vitro assay—standard colorometric assay based on resazurin) of each drug when used in combination by the MIC of each drug when used alone. In very general terms, a FICI lower or higher than 1 indicates positively correlated activity (at least additive or potentiation) or an absence of positive interactions, respectively. […] (as described and used by Joung D K et al. and Rakoliya K et al.)
as §4

MRSA (strain USA300) [2] = assay: Kill-curve test (CFU over time); format: cell-based, Methicillin-resistant Staphylococcus aureus; conditions: for MRSA growth by 24 hours: cannabinoid alone at ½×MIC
Protocol: as §1, §3
(§7) For each test tube, 1 mL of culture at OD600 of 0.005 was added to 1 mL of LB medium containing antibiotics to reach target sub-MIC concentrations of each compound. Samples of 100 μL was extracted from each tube at the determined time stamps followed by 10-fold serial dilutions. 10 μL of each dilution was then added on the LB agar plates that were subsequently incubated for 24 hours. Colonies were inspected and results quantified as log CFU/mL.

E. coli (strain K12) = assay: Kill-curve test (CFU over time); format: cell-based, Escherichia coli; conditions: for inhibitory effect on E. coli growth over 24 hours / inhibition of E. coli growth over 24 hours / inhibition of E. coli growth (summary): cannabinoid alone; for inhibitory effect on E. coli growth over 24 hours: 8 mg/L; for inhibition of E. coli growth over 24 hours: 16 mg/L; for inhibition of E. coli growth (summary): concentrations up to 16 mg/L
Protocol: as §1, §6, §7

MRSA (strain USA 300) = format: cell-based, Methicillin-resistant Staphylococcus aureus; conditions: for inhibition of bacterial growth (ring): single agent at 2% w/w to PVA, films and coated catheter sections, 24 hours
Protocol: PVA films were made by solvent casting using 33 μl drops of 2.5% PVA (88% hydrolyzed, 125 KDa molecular weight) mixed with CBC, CBG or CBGA (2% w/w to PVA). […] 3 mm sections of a urethral catheter (BARDEX® BARD®) were cut and coated with the same 33 μl volume of PVA/Silver/cannabinoid used to make films. Films and coated catheter sections were dried overnight in the dark. Five cavities were created in the LB agar plates containing MRSA (strain USA 300) at OD600 of 0.005. PVA films and catheters coated with PVA films were then placed in the cavities and moistened with 20 μL of deionized distilled water. Plates were incubated for 24 hours at 37° C.

[3] = Silver Nitrate in combination with the cannabinoid
[4] = cannabinoid with silver nitrate
[5] = cannabinoid with silver sulfate
[6] = cannabinoid ½×MIC + AgNP ⅛×MIC (5 mg/L)
[7] = 8 mg/L cannabinoid + 2.5, 1.25 and 0.625 mg/L AgSO4 (each)
[8] = Staphylococcus aureus, read-out: MIC
[9] = cannabinoid with silver nanoparticles
[10] = cannabinoid ½×MIC + silver nitrate 1 mg/L
[11] = cannabinoid ½×MIC + silver nitrate 5 and 8 mg/L

## CCCCCc1cc2c(c(O)c1C(=O)O)C=CC(C)(CCC=C(C)C)O2 (centres unmarked) [CBCA, cannabichromenic acid]
MRSA (USA300); [3]
  FICI: 2
MRSA (USA300); [4]
  interaction (interpretation of FICI): no improved antibiotic affect
E. coli strain K12
  FICI Silver Nanoparticles: 1.25
  FICI Silver Sulfate: 0.50
E. coli strain K12; [5]
  interaction (interpretation of FICI): synergistic
MRSA (strain USA300) [1]
  MIC: 2 µg/mL
MRSA (strain USA300) [2]
  kill-curve effect (CFU): greater bactericidal effect
  MRSA growth by 24 hours: returned to levels equal to that of 0×MIC treatment
MRSA (strain USA300) [2]; [6]
  kill-curve effect (CFU): rapid bactericidal effect
  time of full elimination of CFU: 4 h
  time of onset of bactericidal effect: 2 h
  time through which bactericidal effect persisted: 24 h
E. coli (strain K12)
  time through which bacterial growth was inhibited: 24 h
  time through which the effect persisted: 24 h
  time to the reduction in E. coli CFU: ≤ 4 h
  inhibitory effect on E. coli growth over 24 hours: failed to achieve any inhibitory effect
  inhibition of E. coli growth over 24 hours: failed to achieve any inhibition
  inhibition of E. coli growth (summary): fail to achieve any detectable inhibition
E. coli (strain K12); [7]
  time through which E. coli growth was inhibited: 24 h
  time to the reduction in E. coli CFU: ≤ 6 h

## O=[N+]([O-])[O-].[Ag+] [silver nitrate, reference compound]
MRSA (strain USA300) [1]
  MIC: 16 µg/mL
MRSA (strain USA300) [2]; silver nitrate alone, 1 mg/L
  bacterial growth at 24 hours: full bacterial growth had occurred
MRSA (strain USA300) [2]; silver nitrate alone, 5 mg/L
  duration of bacterial growth inhibition: 4 h
MRSA (strain USA300) [2]; silver nitrate alone, 8 mg/L
  duration of bacterial growth inhibition: 6 h
MRSA (strain USA 300)
  inhibition of bacterial growth (ring): some level of inhibition
MRSA (strain USA 300); listed as Silver nitrate
  inhibition of bacterial growth (ring): strong inhibition

## C=C(C)[C@@H]1CCC(C)=C[C@H]1c1c(O)cc(CCCCC)cc1O [CBD, cannabidiol, reference compound]
MRSA (USA300); [3]
  FICI: 2
MRSA (USA300); [4]
  interaction (interpretation of FICI): no improved antibiotic affect
E. coli strain K12
  FICI Silver Nanoparticles: 1.25
  FICI Silver Sulfate: 1
E. coli strain K12; [5]
  interaction (interpretation of FICI): not observed
MRSA (strain USA300) [1]; [8]
  MIC: 2 µg/mL
MRSA (strain USA300) [2]
  MRSA growth by 24 hours: returned to levels equal to that of 0×MIC treatment
MRSA (strain USA300) [2]; [6]
  MRSA growth over 24 hours compared to cannabinoid alone: substantive decrease
  kill-curve effect (CFU): rapid bactericidal effect
  time of onset of bactericidal effect: 2 h
E. coli (strain K12); 16 mg/L cannabinoid + 2.5 mg/L AgSO4
  inhibition of E. coli growth over 24 hours by the combination: did not result in a substantial inhibition; also recorded: no increase in antimicrobial activity
E. coli (strain K12)
  inhibition of E. coli growth over 24 hours: no inhibition
  inhibition of E. coli growth (summary): fail to achieve any detectable inhibition

## CCCCCc1cc(O)c(C/C=C(\C)CCC=C(C)C)c(O)c1 [CBG, cannabigerol]
MRSA (USA300); Silver Nanoparticles in combination with the cannabinoid
  FICI: 0.625
MRSA (USA300); [3]
  FICI: 0.625
MRSA (USA300); [9]
  interaction (interpretation of FICI): partial synergy
MRSA (USA300); [4]
  interaction (interpretation of FICI): partially synergistic
E. coli strain K12
  FICI Silver Nanoparticles: 1.25
  FICI Silver Sulfate: 1
E. coli strain K12; [5]
  interaction (interpretation of FICI): not observed
MRSA (strain USA300) [1]; [8]
  MIC: 2 µg/mL
MRSA (strain USA300) [2]
  kill-curve effect (CFU): highly comparable bactericidal effect
  time for which bactericidal effect persisted: 24 h
  MRSA growth by 24 hours: returned to levels equal to that of 0×MIC treatment
MRSA (strain USA300) [2]; cannabinoid ¼×MIC + silver nitrate 5 and 8 mg/L
  kill-curve effect (CFU): perceptibly bactericidal
MRSA (strain USA300) [2]; cannabinoid ½×MIC + AgNP 1/160×MIC (0.25 mg/L)
  kill-curve effect (CFU): bactericidal effect which was greater than that seen with ½×MIC CBG alone
MRSA (strain USA300) [2]; [6]
  kill-curve effect (CFU): rapid, full bactericidal effect
  time of onset of bactericidal effect: 2 h
  time through which bactericidal effect persisted: 24 h
MRSA (strain USA300) [2]; [10]
  kill-curve effect (CFU): bactericidal effect
  time for which bactericidal effect remained: up to 6 hours
  time of onset of bactericidal effect: 2 h
MRSA (strain USA300) [2]; [11]
  kill-curve effect (CFU): fully bactericidal effect
  time of onset of bactericidal effect: 2 h
  time through which bactericidal effect remained: 24 h
MRSA (strain USA 300)
  antibiotic effect of combination compared with silver nanoparticles alone: increased antibiotic effect
  inhibition of bacterial growth (ring): some level of inhibition

## C=C(C)[C@@H]1CCC(C)=C[C@H]1c1c(O)cc(CCCCC)c(C(=O)O)c1O [CBDA, cannabidiolic acid]
MRSA (USA300); [3]
  FICI: 2
MRSA (USA300); [4]
  interaction (interpretation of FICI): no improved antibiotic affect
E. coli strain K12
  FICI Silver Nanoparticles: 0.73
  FICI Silver Sulfate: 0.52
E. coli strain K12; [9]
  interaction (interpretation of FICI): potentiation
E. coli strain K12; [5]
  interaction (interpretation of FICI): potentiation
E. coli (strain K12)
  time through which bacterial growth was inhibited: 24 h
  time through which the effect persisted: 24 h
  time to the reduction in E. coli CFU: ≤ 4 h
  inhibitory effect on E. coli growth over 24 hours: failed to achieve any inhibitory effect
  inhibition of E. coli growth over 24 hours: failed to achieve any inhibition
  inhibition of E. coli growth (summary): fail to achieve any detectable inhibition
E. coli (strain K12); [7]
  time through which E. coli growth was inhibited: 24 h
  time to the reduction in E. coli CFU: ≤ 6 h
